“Also recorded” adds a separate entry of the source.
Key:
[1] = target: T1, p47phox-PX (PX domain of p47phox, residues 1-128) (Homo sapiens, UniProt P14598); assay: 1H-15N-HSQC NMR titration (chemical shift perturbation) of inositol phosphates; type: binding; conditions: for Kd / binding observed by NMR (CSPs): 100 μM p47phox-PX; for Kd: pH 6.0, 25 °C, read-out: Kd (binding affinity, global fit of CSPs); for binding observed by NMR (CSPs): up to 64 mM
T1 construct: poly histidine tag (TEV cleavable) (cleaved yes); made in house; host or cells: E. coli BL21 (DE3)
T1 sequence (P14598 1-128): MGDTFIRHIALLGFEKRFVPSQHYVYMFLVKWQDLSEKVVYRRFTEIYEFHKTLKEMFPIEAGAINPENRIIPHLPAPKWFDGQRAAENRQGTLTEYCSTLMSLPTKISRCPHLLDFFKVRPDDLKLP
Protocol: All NMR samples were prepared with either ^15N- or ^15N–^13C-p47^phox-PX in 50 mM Bis-Tris (pH 6.0), 100 mM NaCl, 1 mM DTT, 0.02% (v/v) sodium azide and 10% D2O as a lock solvent. Protein concentration was typically 100 μM in each sample, as confirmed by the Bradford Assay. NMR experiments were collected on a 600 MHz Bruker AVANCE III equipped with a TXI triple resonance probe at 25 °C. NMR assignments of the PX domain were transferred from a previous publication,[24] then were confirmed, and expanded by collection of 3D HNCA, HN(CA)CB, and CBCA(CO)NH experiments on a 700 MHz Bruker AVANCE III at 25 °C.[41]−[43] Standard Bruker pulse sequences were used with the HNCA collected with 64 scans and 1024 × 40 × 48 total points, the HN(CA)CB collected with 64 scans and 1024 × 40 × 64 total points, and the CBCA(CO)NH collected with 32 scans and 1024 × 40 × 96 total points. NMR data was processed with NMRPipe[44] and analyzed using NMRFAM-Sparky.[45]
For NMR titrations, inositol phosphate stocks were prepared in the same NMR buffer, the IP6 stock was pH adjusted, and added in 0.25, 0.5, 2, and 4 to 1 mol equiv to the PX domain of p47^phox. Due to the high buffering capacity of IPs, pH values were checked during titrations and corrected as needed. ^1H–^15N-HSQC spectra were collected at each titration point, using a standard Bruker pulse sequence, collected with 2048 × 100 total points and 16 or 32 scans. Chemical shift perturbations (CSPs) were calculated using weighted chemical shifts in the following formula[46]: [drawing 1] where Δ^1H and Δ^15N represent the changes in the ^1H and ^15N chemical shifts for each resonance. To calculate the binding affinity of IPs to the PX domain of p47^phox, residues with ≥0.08 CSP at the highest titration point were fit to the following formula, which accounts for ligand depletion, on GraphPad Prism 10: [drawing 2] where CSP denotes the CSP of the individual residue at each IP concentration ([L]), Dmax represents the CSP at saturation, [P] represents the concentration of p47^phox-PX, and Kd represents the dissociation constant of p47^phox-PX and IP. The formula was initially fit to each residue individually and any residue with R^2 < 0.95 was removed before fitting the data globally to determine the overall binding affinity.

p47phox-PX [2] = target: T2, p47phox-PX (Homo sapiens, UniProt P14598); assay: Fluorescence polarization competition against BODIPY-PI(3,4)P2 tracer; type: binding
T2 construct: poly histidine tag (TEV cleavable) (cleaved yes); made in house; host or cells: E. coli BL21 (DE3)
T2 sequence (P14598 1-128): T1 sequence (P14598 1-128)
Protocol: All fluorescence polarization (FP) experiments were performed using BODIPY-FL diC6–PI(3,4)P2 [Echelon Biosciences (Salt Lake City, UT)] as the reporting tracer. […] Each sample contained 50 nM BODIPY-PI(3,4)P2 and was plated in triplicate on a black half area 96-well microplate [Corning (Corning, NY)]. The plate was centrifuged at 500 rpm for 30 s prior to analysis on a SpectraMax M5 [Molecular Devices (San Jose, CA)]. Measurements were taken using a monochromator with fixed excitation and emission wavelengths of 485 and 525 nm, respectively, and a cutoff of 515 nm. Raw data was converted to millipolarization (mP) using the SoftMax Pro software [Molecular Devices (San Jose, CA)]. mP values were then converted to anisotropy (A) using the following formula: [drawing 3]
A 2-fold dilution series of IP was performed, ranging from 50–0.05 μM IP in the presence of 2.5 μM p47^phox-PX and 50 nM BODIPY-PI(3,4)P2. Samples were plated in triplicate on a black half area microplate, centrifuged at 500 rpm for 30 s, and incubated for 1 h prior to analysis. The data was converted to anisotropy and fit to a four-parameter, variable slope, dose–response equation on GraphPad Prism 10. The IC50 from the dose–response equation was converted to an inhibitory constant (Ki) using a IC50-to-Ki calculator, which incorporated the following formula[47]: [drawing 5] where I50 and L50 are the free concentrations of IP and BODIPY-PI(3,4)P2, respectively, at 50% inhibition, and P0 is the free concentration of p47^phox-PX in the absence of IP.

[3] = target: T3, p47phox-PX binding to PI(3,4)P2-containing liposomes (Homo sapiens, UniProt P14598); assay: Dansyl-PE liposome FRET assay of membrane anchoring; type: biochemical; conditions: 2.5 μM p47phox-PX, 125 μM accessible lipid, 79:15:1:5 POPC:POPE:diC16-PI(3,4)P2:Dansyl-PE, pH 7.0, 1 mM MgCl2; read-out: apparent IC50 of inhibition of membrane anchoring
T3 construct: poly histidine tag (TEV cleavable) (cleaved yes); made in house; host or cells: E. coli BL21 (DE3)
T3 sequence (P14598 1-128): T1 sequence (P14598 1-128)
Protocol: To ensure proper liposome formation, phosphatidylinositol stocks were protonated prior to use adapted from a previously published protocol.[28] In brief, lyophilized PI(3,4)P2 lipids were resuspended in CHCl3 and dried under nitrogen. Lipids were then further dried under a speed vacuum for 1 h followed by a resuspension into 2:1:0.01 CHCl3: MeOH: 1 M HCl. The suspension was allowed to sit at room temperature for 15 min before the drying process was repeated. Lipids were then reconstituted in 3:1 CHCl3: MeOH and dried as above. The process was repeated with CHCl3 before a final resuspension into CHCl3 at the desired concentration and storage of protonated stocks at −80 °C. […]
The FRET assay was performed based on a previously published protocol,[48] where intrinsic tryptophan fluorescence within the PX domain was utilized as the donor fluorophore and Dansyl-PE incorporated within liposomes as the acceptor fluorophore. […] Samples were mixed for 40 s after each IP6 addition and were analyzed on an OLIS 14 TB NIR/CD Spectrophotometer [Olis (Bogart, GA)] equipped with a UV/vis photon counter 230–870 nm fluorescence detector. […] Each titration point measurement was integrated over 10 s and measured in triplicate. […]

p47phox-PX [4] = target: T2, p47phox-PX; assay: Fluorescence polarization direct binding of BODIPY-PI(3,4)P2 tracer; conditions: 50 nM tracer, 10-0.02 μM protein, pH 7.0, 1 mM MgCl2
Protocol: All fluorescence polarization (FP) experiments were performed using BODIPY-FL diC6–PI(3,4)P2 [Echelon Biosciences (Salt Lake City, UT)] as the reporting tracer. To determine the binding affinity of the fluorophore to p47^phox-PX, a series of 2-fold dilutions, ranging from 10–0.02 μM protein, were performed in 50 mM Bis-Tris (pH 7.0), 100 mM NaCl, 1 mM MgCl2, and 1 mM DTT. Each sample contained 50 nM BODIPY-PI(3,4)P2 and was plated in triplicate on a black half area 96-well microplate [Corning (Corning, NY)]. The plate was centrifuged at 500 rpm for 30 s prior to analysis on a SpectraMax M5 [Molecular Devices (San Jose, CA)]. Measurements were taken using a monochromator with fixed excitation and emission wavelengths of 485 and 525 nm, respectively, and a cutoff of 515 nm. Raw data was converted to millipolarization (mP) using the SoftMax Pro software [Molecular Devices (San Jose, CA)]. mP values were then converted to anisotropy (A) using the following formula: [drawing 3] […]

## O=P(O)(O)O[C@H]1[C@H](O)[C@@H](O)[C@H](OP(=O)(O)O)[C@@H](OP(=O)(O)O)[C@H]1O [IP3, inositol (1,3,4) trisphosphate]
[1]; NMR titration
  Kd: 200 ± 50 µM

## O=P(O)(O)O[C@H]1[C@H](O)[C@@H](OP(=O)(O)O)[C@H](OP(=O)(O)O)[C@@H](OP(=O)(O)O)[C@H]1O [IP4, inositol (1,3,4,5) tetrakisphosphate]
[1]; NMR titration
  Kd: 100 ± 11 µM

## O=P(O)(O)O[C@@H]1[C@@H](OP(=O)(O)O)[C@H](OP(=O)(O)O)[C@H](O)[C@H](OP(=O)(O)O)[C@H]1OP(=O)(O)O [IP5, inositol (1,3,4,5,6) pentakisphosphate]
[1]; NMR titration
  Kd: 58 ± 6 µM
p47phox-PX [2]; up to 50 μM, 2.5 μM p47phox-PX, 50 nM tracer
  competition with BODIPY-PI(3,4)P2 binding: no apparent capacity to inhibit; also recorded: no significant observed competition

## O=P(O)(O)O[C@H]1[C@H](OP(=O)(O)O)[C@@H](OP(=O)(O)O)[C@H](OP(=O)(O)O)[C@@H](OP(=O)(O)O)[C@H]1OP(=O)(O)O [IP6, inositol hexaphosphate]
[3]
  IC50: 1.3 ± 0.3 µM
[1]; NMR titration, line-broadening precluded Kd fit
  approximate affinity inferred from intermediate-exchange line-broadening: low-μM or lower affinity
p47phox-PX [2]; 2.5 μM p47phox-PX, 50 nM BODIPY-PI(3,4)P2, pH 7.0, 1 mM MgCl2, read-out: Ki (inhibition constant, converted from IC50)
  Ki: 0.6 ± 0.2 µM
p47phox-PX [2]; pH 6 with 1 mM MgCl2, compared to pH 7.0
  effect of lower pH on inhibition / Ki: no significant change in Ki; also recorded: only a minor effect
p47phox-PX [2]; pH 6 with no MgCl2
  effect of absence of MgCl2 on inhibition / Ki: no significant change in Ki; also recorded: little to no effect

## O[C@H]1[C@H](O)[C@@H](O)[C@H](O)[C@@H](O)[C@H]1O [Inositol]
[1]
  binding observed by NMR (CSPs): no significant CSPs were observed
[1]; listed as inositol
  binding observed by NMR (CSPs): no significant binding

## O=P(O)(O)OC1[C@H](O)[C@H](O)C(O)[C@H](O)[C@H]1O (stereo partly shown) [inositol-1-phosphate]
[1]; NMR titration
  Kd: 870 ± 120 µM

## BODIPY-FL diC6–PI(3,4)P2 [BODIPY-PI(3,4)P2]
p47phox-PX [4]
  Kd: 0.35 ± 0.05 µM
